pIC50: −log10 of the molar value.
The compounds below were run on Endogenous Huntingtin Protein (assay: Endogenous Huntingtin Protein Assay (ELISA-based MSD electrochemiluminescence)). Conditions: Table 1.
Type: cell-based
Procedure: Compounds of Formula (I) or Formula (II) were tested using the Meso Scale Discovery (MSD) Assay provided in International Application No. PCT/US2016/066042, filed on Dec. 11, 2016 and claiming priority to U.S. Provisional Application 62/265,652 filed on Dec. 10, 2015, the entire contents of which are incorporated herein by reference.
The Endogenous Huntingtin Protein assay used in Example 1 was developed using the ELISA-based MSD electrochemiluminescence assay platform.
Endogenous Huntingtin Protein Assay
Meso Scale Discovery (MSD) 96-well or 384-well plates were coated overnight at 4° C. with MW1 (expanded polyglutamine) or MAB2166 monoclonal antibody (for capture) at a concentration of 1 μg/mL in PBS (30 μL per well). Plates were then washed three times with 300 μL wash buffer (0.05% Tween-20 in PBS) and blocked (100 μL blocking buffer; 5% BSA in PBS) for 4-5 hours at room temperature with rotational shaking and then washed three times with wash buffer.
Samples (25 μL) were transferred to the antibody-coated MSD plate and incubated overnight at 4° C. After removal of the lysates, the plate was washed three times with wash buffer, and 25 μL of #5656S (Cell signaling; rabbit monoclonal) secondary antibody (diluted to 0.25 μg/mL in 0.05% Tween-20 in blocking buffer) was added to each well and incubated with shaking for 1 Hour at room temperature. Following incubation with the secondary antibody, the wells were rinsed with wash buffer after which 25 μL of goat anti-rabbit SULFO TAG secondary detection antibody (required aspect of the MSD system) (diluted to 0.25 μg/mL in 0.05% Tween-20 in blocking buffer) was added to each well and incubated with shaking for 1 hour at room temperature. After rinsing three times with wash buffer, 150 μL of read buffer T with surfactant (MSD) were added to each empty well, and the plate was imaged on a SI 6000 imager (MSD) according to manufacturers' instructions provided for 96- or 384-well plates.

| SMILES | pIC50 |
| --- | --- |
| Cc1cn2cc(-c3cc4sc(N(C)C5CCNCC5)nc4cn3)cc(C#N)c2n1 [Compound 198, 2-methyl-6-{2-[methyl(piperidin-4-yl)amino][1,3]thiazolo[4,5-c]pyridin-6-yl}imidazo[1,2-a]pyridine-8-carbonitrile] | ≥ 7.00 |
| Cc1cc(-c2cc(O)c3nc(C4=CCNCC4)sc3c2)cc2cn(C)nc12 [Compound 100, 6-(2,7-dimethyl-2H-indazol-5-yl)-2-(1,2,3,6-tetrahydropyridin-4-yl)-1,3-benzothiazol-4-ol] | 6.00 to 6.30 |
| CN(c1nc2cnc(-c3cc(F)c4nn(C)cc4c3)nc2s1)C1CC(C)(C)NC(C)(C)C1 [Compound 124, 5-(7-fluoro-2-methyl-2H-indazol-5-yl)-N-methyl-N-(2,2,6,6-tetramethylpiperidin-4-yl)[1,3]thiazolo[5,4-d]pyrimidin-2-amine] | ≥ 7.00 |
| Cc1cc(-c2ccc3nc(OC4CC(C)(C)NC(C)(C)C4)sc3c2)cc2cn(C)nc12 [Compound 68, 6-(2,7-dimethyl-2H-indazol-5-yl)-2-[(2,2,6,6-tetramethylpiperidin-4-yl)oxy]-1,3-benzothiazole] | 5.52 to 6.00 |
| CN(c1nc2ccc(-c3ccc4nn(C)cc4c3)nc2s1)C1CCNCC1 [Compound 26, N-methyl-5-(2-methyl-2H-indazol-5-yl)-N-(piperidin-4-yl)[1,3]thiazolo[5,4-b]pyridin-2-amine] | 6.00 to 6.30 |
| Cc1cc(-c2cc3sc(N(C)C4CC5CCCC(C4)N5)nc3cn2)cc2cn(C)nc12 (stereo not drawn) [Compound 263, N-(9-azabicyclo[3.3.1]non-3-yl)-6-(2,7-dimethyl-2H-indazol-5-yl)-N-methyl[1,3]thiazolo[4,5-c]pyridin-2-amine] | ≥ 7.00 |
| CN(c1nc2cnc(-c3ccc4nn(C)cc4c3)cc2s1)C1CC(C)(C)NC(C)(C)C1 [Compound 32, N-methyl-6-(2-methyl-2H-indazol-5-yl)-N-(2,2,6,6-tetramethylpiperidin-4-yl)[1,3]thiazolo[4,5-c]pyridin-2-amine] | ≥ 7.00 |
| Cc1nn2cc(-c3cc4sc(N(C)C5CC(C)(C)NC(C)(C)C5)nc4cn3)nc2s1 [Compound 308, N-methyl-6-(2-methylimidazo[2,1-b][1,3,4]thiadiazol-6-yl)-N-(2,2,6,6-tetramethylpiperidin-4-yl)[1,3]thiazolo[4,5-c]pyridin-2-amine] | 5.52 to 6.00 |
| CN1CCC(N(C)c2nc3nnc(-c4ccc(-c5cn[nH]c5)cc4O)cc3s2)CC1 [Compound 283, 2-{6-[methyl(1-methylpiperidin-4-yl)amino][1,3]thiazolo[4,5-c]pyridazin-3-yl}-5-(1H-pyrazol-4-yl)phenol] | 6.00 to 6.30 |
| Cn1cc2cc(-c3ccc4nc(NC5CCNCC5)sc4c3)ccc2n1 [Compound 35, 6-(2-methyl-2H-indazol-5-yl)-N-(piperidin-4-yl)-1,3-benzothiazol-2-amine] | 6.30 to 7.00 |
| Cn1cc2cc(-c3cc(F)c4nc(C5CCNCC5)sc4c3)cc(C#N)c2n1 [Compound 104, 5-[4-fluoro-2-(piperidin-4-yl)-1,3-benzothiazol-6-yl]-2-methyl-2H-indazole-7-carbonitrile] | ≥ 7.00 |
| Cc1cn2cc(-c3cc4sc(N(C)C5CC6CCC(C5)N6)nc4cn3)cc(F)c2n1 (stereo not drawn) [Compound 204, N-[(3-exo)-8-azabicyclo[3.2.1]oct-3-yl]-6-(8-fluoro-2-methylimidazo[1,2-a]pyridin-6-yl)-N-methyl[1,3]thiazolo[4,5-c]pyridin-2-amine] | ≥ 7.00 |
| Cc1cn2cc(-c3cc4sc(NC5CC(C)(C)NC(C)(C)C5)nc4cn3)cc(C#N)c2n1 [Compound 222, 2-methyl-6-{2-[(2,2,6,6-tetramethylpiperidin-4-yl)amino][1,3]thiazolo[4,5-c]pyridin-6-yl]imidazo[1,2-a]pyridine-8-carbonitrile] | ≥ 7.00 |
| CN(c1nc2c(F)cc(-c3ccc4nn(C)cc4c3)cc2s1)C1CC(C)(C)NC(C)(C)C1 [Compound 23, 4-fluoro-N-methyl-6-(2-methyl-2H-indazol-5-yl)-N-(2,2,6,6-tetramethylpiperidin-4-yl)-1,3-benzothiazol-2-amine] | ≥ 7.00 |
| Cc1cn2cc(-c3cc4sc(NC5CC(C)(C)NC(C)(C)C5)nc4cn3)cc(F)c2n1 [Compound 234, 6-(8-fluoro-2-methylimidazo[1,2-a]pyridin-6-yl)-N-(2,2,6,6-tetramethylpiperidin-4-yl)[1,3]thiazolo[4,5-c]pyridin-2-amine] | ≥ 7.00 |
| Cc1nc2c(C#N)cc(-c3cc4sc(N(C)C5CC6(C)CCC(C)(C5)N6)nc4cn3)cc2o1 [Compound 301, 6-(2-{[(1R,3s,5S)-1,5-dimethyl-8-azabicyclo[3.2.1]octan-3-yl](methyl)amino)[1,3]thiazolo[4,5-c]pyridin-6-yl)-2-methyl-1,3-benzoxazole-4-carbonitrile] | ≥ 7.00 |
| Cn1cc2cc(-c3cc4sc(NC5CC(C)(C)NC(C)(C)C5)nc4cn3)cc(C#N)c2n1 [Compound 233, 2-methyl-5-{2-[(2,2,6,6-tetramethylpiperidin-4-yl)amino][1,3]thiazolo[4,5-c]pyridin-6-yl}-2H-indazole-7-carbonitrile] | ≥ 7.00 |
| Oc1cc(-c2cn[nH]c2)ccc1-c1cc2sc(N3C[C@@H]4CCNC[C@@H]43)nc2nn1 [Compound 389, 2-{6-[(1R,6S)-3,8-diazabicyclo[4.2.0]octan-8-yl][1,3]thiazolo[4,5-c]pyridazin-3-yl}-5-(1H-pyrazol-4-yl)phenol] | ≥ 7.00 |
| CN[C@H]1C[C@@H](N(C)c2nc3nnc(-c4ccc(-c5cn[nH]c5)cc4O)cc3s2)C1 [Compound 361, 2-(6-{methyl[(1s,3s)-3-(methylamino)cyclobutyl]amino}[1,3]thiazolo[4,5-c]pyridazin-3-yl)-5-(1H-pyrazol-4-yl)phenol] | 6.30 to 7.00 |
| COc1cc(-c2cc3sc(N(C)C4CC5CCCC(C4)N5)nc3cn2)cc2cn(C)nc12 (stereo not drawn) [Compound 264, N-(9-azabicyclo[3.3.1]non-3-yl)-6-(7-methoxy-2-methyl-2H-indazol-5-yl)-N-methyl[1,3]thiazolo[4,5-c]pyridin-2-amine] | ≥ 7.00 |
| CN(c1nc2nnc(-c3ccc(-c4cn[nH]c4)cc3O)cc2s1)[C@H]1CCCNC1 [Compound 349, 2-(6-{methyl[(3S)-piperidin-3-yl]amino}[1,3]thiazolo[4,5-c]pyridazin-3-yl)-5-(1H-pyrazol-4-yl)phenol] | ≥ 7.00 |
| Cc1cn2cc(-c3cc4sc(N(C)C5CC6CCCC(C5)N6)nc4cn3)ccc2n1 (stereo not drawn) [Compound 260, N-(9-azabicyclo[3.3.1]non-3-yl)-N-methyl-6-(2-methylimidazo[1,2-a]pyridin-6-yl)[1,3]thiazolo[4,5-c]pyridin-2-amine] | ≥ 7.00 |
| CC1CC(c2nc3ccc(-c4ccc5nn(C)cc5c4)cc3s2)CCN1 (stereo not drawn) [Compound 58, 6-(2-methyl-2H-indazol-5-yl)-2-(2-methylpiperidin-4-yl)-1,3-benzothiazole] | 6.00 to 6.30 |
| Cc1cn2nc(-c3cc(F)c4nc(N(C)C5CC6CCC(C5)N6)sc4c3)cc(C(N)=O)c2n1 (stereo not drawn) [Compound 236, 6-{2-[(3-exo)-8-azabicyclo[3.2.1]oct-3-yl(methyl)amino]-4-fluoro-1,3-benzothiazol-6-yl}-2-methylimidazo[1,2-b]pyridazine-8-carboxamide] | ≥ 7.00 |
| Cn1cc2cc(-c3ccc4nc(N5CCNCC5)sc4c3)ccc2n1 [Compound 7, 6-(2-methyl-2H-indazol-5-yl)-2-(piperazin-1-yl)-1,3-benzothiazole] | 5.52 to 6.00 |
| CN(c1nc2nnc(-c3cc(C#N)c4nn(C)cc4c3)cc2s1)C1CC(C)(C)NC(C)(C)C1 [Compound 158, 2-methyl-5-{6-[methyl(2,2,6,6-tetramethylpiperidin-4-yl)amino][1,3]thiazolo[4,5-c]pyridazin-3-yl}-2H-indazole-7-carbonitrile] | 6.30 to 7.00 |
| Cc1cn2nc(-c3cc(F)c4nc(N5CCC(O)CC5)sc4c3)cc(C)c2n1 [Compound 143, 1-[6-(2,8-dimethylimidazo[1,2-b]pyridazin-6-yl)-4-fluoro-1,3-benzothiazol-2-yl]piperidin-4-ol] | 6.30 to 7.00 |
| Cc1cn2cc(-c3cc4sc(OC5CC(C)(C)NC(C)(C)C5)nc4cn3)cc(C#N)c2n1 [Compound 309, 2-methyl-6-{2-[(2,2,6,6-tetramethylpiperidin-4-yl)oxy][1,3]thiazolo[4,5-c]pyridin-6-yl}imidazo[1,2-a]pyridine-8-carbonitrile] | ≥ 7.00 |
| CN(c1nc2ccc(-c3cc(C(F)(F)F)c4nn(C)cc4c3)cc2s1)C1CC(C)(C)NC(C)(C)C1 [Compound 51, N-methyl-6-[2-methyl-7-(trifluoromethyl)-2H-indazol-5-yl]-N-(2,2,6,6-tetramethylpiperidin-4-yl)-1,3-benzothiazol-2-amine] | 6.30 to 7.00 |
| Cc1cn2cc(-c3cc(F)c4nc(OC5CCNCC5)sc4c3)cc(C#N)c2n1 [Compound 317, 6-{4-fluoro-2-[(piperidin-4-yl)oxy]-1,3-benzothiazol-6-yl}-2-methylimidazo[1,2-a]pyridine-8-carbonitrile] | ≥ 7.00 |

— patent publication US12139499B2, “Heteroaryl compounds for treating Huntington's disease” (PTC THERAPEUTICS, INC., priority 2018, dated 2024)
